Source: US20110294721A1, “ANTIMICROBIAL PEPTIDES” (priority 2008, published 2011)
Several values for one entry are separate records, joined by “and”; a condition that tells them apart may be missing. Identical values can stand only once. No end group written: not given here.

Key:
[1] = tested on: Clavibacter michiganensis; assay: MIC and lethal concentration (LC) assay (Example 3); assay type: cell-based; conditions: Table 2; for LC (lethal concentration): 100% inhibition after at least 4 days of incubation; for MIC: >90% inhibition, 1-2 days at 25° C.
Protocol: (§1) In-vitro inhibition assays were performed in sterile flat-bottom 96-well plates (Greiner bio-one, Frickenhausen). Antimicrobial peptides were dissolved in 0.01% acetic acid containing 0.2% BSA (500 μg/ml), filter sterilized and stored at −20° C. For inhibition assays dilutions of peptides ranging from 5 to 200 μg/ml were prepared and 10 μl (antibacterial assay) or 20 μl (antifungal assay) of each concentration was loaded per well.
(§2) Bacteria colonies from overnight agar plate cultures were resuspended into 5 ml LB-medium or HPG-medium (OD600 nm=0.08-0.1) and diluted into LB-medium/HPG-medium (1:100). 90 μl of this suspension containing about 10^5-10^6 CFU/ml of tested bacteria were added to each well resulting in final peptide concentrations of 0, 0.5, 1, 2, 5, 10, and 20 μg/ml. […] The lowest concentration, in which there is no observable growth (>90% inhibition) is referred to as minimal inhibitory concentration (MIC). […] For each peptide concentration two identical inhibition assays were performed.

[2] = tested on: Xanthomonas vesicatoria; assay: as above; assay type: cell-based; conditions: Table 2; for LC (lethal concentration): 100% inhibition after at least 4 days of incubation; for MIC: >90% inhibition, 1-2 days at 25° C.
Protocol: as §1, §2

[3] = tested on: Pectobacterium carotovorum; assay: as above; assay type: cell-based; conditions: Table 2; for LC (lethal concentration): 100% inhibition after at least 4 days of incubation; for MIC: >90% inhibition, 1-2 days at 25° C.
Protocol: as §1, §2

[4] = tested on: Pseudomonas syringae pv. tomato; assay: as above; assay type: cell-based; conditions: Table 2; for LC (lethal concentration): 100% inhibition after at least 4 days of incubation; for MIC: >90% inhibition, 1-2 days at 25° C.
Protocol: as §1, §2

[5] = tested on: Pseudomonas syringae pv. syringae; assay: as above; assay type: cell-based; conditions: Table 2; for LC (lethal concentration): 100% inhibition after at least 4 days of incubation; for MIC: >90% inhibition, 1-2 days at 25° C.
Protocol: as §1, §2

[6] = tested on: Pseudomonas corrugata; conditions: Table 2; for LC (lethal concentration): 100% inhibition after at least 4 days of incubation; for MIC: >90% inhibition, 1-2 days at 25° C.
Protocol: as §1, §2

[7] = tested on: Pectobacterium carotovorum sub. carotovorum; conditions: complete inhibition of bacterial growth; overnight 25° C.; Table 1
[8] = tested on: Pseudomonas syringae pv. syringae; conditions: complete inhibition of bacterial growth; overnight 25° C.; Table 1
[9] = tested on: Pseudomonas syringae pv. tomato; conditions: complete inhibition of bacterial growth; overnight 25° C.; Table 1
[10] = tested on: Pseudomonas corrugata; conditions: complete inhibition of bacterial growth; overnight 25° C.; Table 1
[11] = tested on: Cladosporium herbarum; assay: MIC in-vitro inhibition assay, antifungal (Example 2); assay type: cell-based; conditions: complete inhibition of spore germination/mycelial growth; Table 1
Protocol: as §1
(§3) Spores of fungi were collected by water washes of sporulating cultures grown on 2% malt extract agar and spore concentration was determined by microscopy. The concentration of the spores was adjusted to 1.5-2×10^3 spores/ml in 2% malt extract medium and 80 μl of fungal spores were added per well. The final peptide concentrations used in the fungal inhibition assays were 0, 2, 4, 10, 20, 40, and 100 μg/ml. After overnight incubation at room temperature the plate were put on a rotary shaker (300 rpm) for further two days to ensure consistantly growth. Antifungal effects of the peptides were determined by a microplate reader (Altemaria, Fusarium) at OD590 nm or by visual screening of the plates (Bottytis, Cladosporium).
(§4) The lowest peptide concentration leading to complete inhibition of bacterial growth or spore germination/mycelial growth (minimal inhibition concentration, MIC) was determined for each organism-peptide combination. For each peptide concentration two identical inhibition assays were performed.

[12] = tested on: Botrytis cinerea; assay: as above; assay type: cell-based; conditions: complete inhibition of spore germination/mycelial growth; Table 1
Protocol: as §1, §3, §4

[13] = tested on: Alternaria alternata; assay: as above; assay type: cell-based; conditions: complete inhibition of spore germination/mycelial growth; Table 1
Protocol: as §1, §3, §4

[14] = tested on: Xanthomonas vesicatoria; conditions: complete inhibition of bacterial growth; overnight 25° C.; Table 1

Substance | LC (lethal concentration) [1] [µg/mL] | MIC [1] [µg/mL] | LC (lethal concentration) [2] | MIC [2] | LC (lethal concentration) [3] | MIC [3] | LC (lethal concentration) [4] | MIC [4] | LC (lethal concentration) [5] | MIC [5] | LC (lethal concentration) [6] | MIC [6] | Minimal inhibition concentration (MIC) [7] [µg/mL] | Minimal inhibition concentration (MIC) [8] [µg/mL] | Minimal inhibition concentration (MIC) [9] [µg/mL] | Minimal inhibition concentration (MIC) [10] [µg/mL] | Minimal inhibition concentration (MIC) [11] [µg/mL] | Minimal inhibition concentration (MIC) [12] [µg/mL] | Minimal inhibition concentration (MIC) [13] [µg/mL] | Minimal inhibition concentration (MIC) [14] [µg/mL]
KRRKAIKILKLIAKLIRKKR-NH2 [SP13-8] | 0.25 | 0.1 | 0.5 µg/mL | 0.1 µg/mL | >10/>10 μg/ml | >10/>10 μg/ml | 10/>10 μg/ml | 10/>10 μg/ml | >10/>10 μg/ml | >10/>10 μg/ml | 0.5 µg/mL | 0.25 µg/mL |  |  |  |  |  |  |  | 
KRRKLAFRAFRFALKAVLKK-NH2 [SP13-13] | 2.5 | 0.5 | 0.5 µg/mL | 0.25 µg/mL | >10/>10 μg/ml | >10/>10 μg/ml | 5.0 µg/mL | 2.5 µg/mL | 0.5/0.5 μg/ml | 0.5/0.5 μg/ml | 1.0 µg/mL | 0.25 µg/mL |  |  |  |  |  |  |  | 
KRRLIFRILKLFFRFLVKKR-NH2 [SP13-4] | 2.5 | 1.0 | 2.5/2.5 μg/ml | 2.5/2.5 μg/ml | >10/>10 μg/ml | >10/>10 μg/ml | >10/>10 μg/ml | >10/>10 μg/ml | 10/>10 μg/ml | 10/>10 μg/ml | > 10 µg/mL | 5.0 µg/mL |  |  |  |  |  |  |  | 
KRRILIRILKLIIKLILKKR-NH2 [SP13-5] | > 10 | 2.5 | 5.0 µg/mL | 1.0 µg/mL | >10/>10 μg/ml | >10/>10 μg/ml | 5.0 µg/mL | 2.5 µg/mL | >10/>10 μg/ml | >10/>10 μg/ml | 10/>10 μg/ml | 10/>10 μg/ml |  |  |  |  |  |  |  | 
KRRLALFRAFRLALKSVLKK-NH2 [SP13-10] | 0.25 | 0.1 | 0.25 µg/mL | 0.1 µg/mL | >10/>10 μg/ml | >10/>10 μg/ml | 1.0/1.0 μg/ml | 1.0/1.0 μg/ml | >10/>10 μg/ml | >10/>10 μg/ml | 0.5 µg/mL | 0.25 µg/mL |  |  |  |  |  |  |  | 
KRKLIFLAAFLAALALFKKR-NH2 [SP15] |  |  |  |  |  |  |  |  |  |  |  |  | >40 | >40 | 40 | >40 | 40 | >100 | >100 | 20
KRRKLIKILKLIIKLIRKKR-NH2 [SP13-6] | 1.0 | 0.1 | 0.5 µg/mL | 0.1 µg/mL | >10/>10 μg/ml | >10/>10 μg/ml | 5.0 µg/mL | 2.5 µg/mL | 2.5 µg/mL | 1.0 µg/mL |  | 2.5 µg/mL |  |  |  |  |  |  |  | 
KRRLIARILRLAIRALVKKR-NH2 [SP13-1] | 2.5 | 0.5 | 1.0 µg/mL | 0.5 µg/mL | >10//>10 μg/ml | >10//>10 μg/ml | 5.0 µg/mL and > 10 µg/mL | 1.0 µg/mL | 2.5 µg/mL | 1.0 µg/mL | 2.5/2.5 μg/ml | 2.5/2.5 μg/ml |  |  |  |  |  |  |  | 
KRRLILRILRLAIRALVKKR-NH2 [SP13-2] | 1.0 | 0.25 | 0.5 µg/mL | 0.25 µg/mL | >10/>10 μg/ml | >10/>10 μg/ml | 10/>10 μg/ml | 10/>10 μg/ml | 10 µg/mL | 5.0 µg/mL | 5.0/5.0 μg/ml | 5.0/5.0 μg/ml |  |  |  |  |  |  |  | 
KRRLFLFRLFRLFLRLFLKK-NH2 [SP13-12] | 5.0 | 2.5 | 5.0 µg/mL | 2.5 µg/mL | >10/>10 μg/ml | >10/>10 μg/ml | > 10 µg/mL | 5.0 µg/mL | >10/>10 μg/ml | >10/>10 μg/ml | 10/>10 μg/ml | 10/>10 μg/ml |  |  |  |  |  |  |  | 
KRRKLIKILKLIAKLIRKKR-NH2 [SP13-7] | 0.5 | 0.25 | 0.25 µg/mL | 0.1 µg/mL | >10/>10 μg/ml | >10/>10 μg/ml | 10/>10 μg/ml | 10/>10 μg/ml | >10/>10 μg/ml | >10/>10 μg/ml | 2.5 µg/mL | 0.5 µg/mL |  |  |  |  |  |  |  | 
